Data taken from paper PMC5050486 (Scientific Reports, 2016).
Entries after “also recorded” stand apart in the source; their conditions may differ. Where a name gives a salt, the structure may show the parent alone. Read-outs that look alike come from different tables or passages of the source. Where a SMILES comes first, the peptide text is derived from it. Where no end group is shown, it is not given here.

Columns and labels:
[1] = test system: LF-PA treated mouse macrophage RAW264.7 cells; assay type: cell-based
anthrax LF = anthrax LF (Bacillus anthracis, UniProt P15917); assay: biochemical; details: for inhibition at 33 µM: read-out: Percent Inhibition with 33 μM of drug, LF
caspase-3 = target: T1, caspase-3 (Homo sapiens, UniProt P42574); assay: Host protease FRET test, caspase-3; assay type: biochemical; details: for inhibition at 33 µM: read-out: Percent Inhibition with 33 μM of drug, Casp 3
T1 construct: purchased BioVision
T1 sequence (P42574 29-277): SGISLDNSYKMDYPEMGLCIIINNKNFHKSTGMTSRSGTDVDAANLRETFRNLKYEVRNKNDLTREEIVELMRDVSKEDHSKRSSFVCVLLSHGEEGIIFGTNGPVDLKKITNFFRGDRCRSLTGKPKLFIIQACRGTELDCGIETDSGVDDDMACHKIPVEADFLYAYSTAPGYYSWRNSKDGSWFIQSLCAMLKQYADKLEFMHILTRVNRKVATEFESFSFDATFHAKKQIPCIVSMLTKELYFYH

[2] = test system: Cholera toxin treated RAW264.7 cells; assay type: cell-based, mouse
[3] = test system: Pseudomonas aeruginosa exotoxin A treated RAW264.7 cells; assay type: cell-based, mouse
human furin = target: T2, human furin (Homo sapiens, UniProt P09958); assay: Host protease FRET test, furin; assay type: biochemical; details: for inhibition at 33 µM: read-out: Percent Inhibition with 33 μM of drug, Furin
T2 construct: purchased New England Biolabs

caspase-1 = target: T3, caspase-1 (Homo sapiens, UniProt P29466); assay: Host protease FRET test, caspase-1; assay type: biochemical; details: read-out: Percent Inhibition with 33 μM of drug, Casp 1
T3 construct: purchased BioVision
T3 sequence (P29466 120-404): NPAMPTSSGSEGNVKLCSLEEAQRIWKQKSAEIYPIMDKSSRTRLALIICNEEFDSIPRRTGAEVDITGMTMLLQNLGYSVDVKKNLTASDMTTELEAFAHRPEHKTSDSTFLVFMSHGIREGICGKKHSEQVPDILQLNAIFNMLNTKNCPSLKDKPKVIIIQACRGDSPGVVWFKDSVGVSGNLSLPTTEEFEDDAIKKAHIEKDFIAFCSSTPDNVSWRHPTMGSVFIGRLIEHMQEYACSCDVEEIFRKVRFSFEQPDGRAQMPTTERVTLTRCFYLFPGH

cathepsin B = cathepsin B (Homo sapiens, UniProt P07858); assay: Host protease FRET test, cathepsin B; assay type: biochemical; details: 33 μM drug, N/I = no FRET inhibition; for inhibition at 33 µM: read-out: Percent Inhibition with 33 μM of drug, Cath B
calpain 1 = target: T4, calpain 1 (Homo sapiens, UniProt P07384); assay: Host protease FRET test, calpain; assay type: biochemical; details: for inhibition at 33 µM: read-out: Percent Inhibition with 33 μM of drug, Calpain
T4 construct: purchased BioVision
T4 sequence (P07384 1-714): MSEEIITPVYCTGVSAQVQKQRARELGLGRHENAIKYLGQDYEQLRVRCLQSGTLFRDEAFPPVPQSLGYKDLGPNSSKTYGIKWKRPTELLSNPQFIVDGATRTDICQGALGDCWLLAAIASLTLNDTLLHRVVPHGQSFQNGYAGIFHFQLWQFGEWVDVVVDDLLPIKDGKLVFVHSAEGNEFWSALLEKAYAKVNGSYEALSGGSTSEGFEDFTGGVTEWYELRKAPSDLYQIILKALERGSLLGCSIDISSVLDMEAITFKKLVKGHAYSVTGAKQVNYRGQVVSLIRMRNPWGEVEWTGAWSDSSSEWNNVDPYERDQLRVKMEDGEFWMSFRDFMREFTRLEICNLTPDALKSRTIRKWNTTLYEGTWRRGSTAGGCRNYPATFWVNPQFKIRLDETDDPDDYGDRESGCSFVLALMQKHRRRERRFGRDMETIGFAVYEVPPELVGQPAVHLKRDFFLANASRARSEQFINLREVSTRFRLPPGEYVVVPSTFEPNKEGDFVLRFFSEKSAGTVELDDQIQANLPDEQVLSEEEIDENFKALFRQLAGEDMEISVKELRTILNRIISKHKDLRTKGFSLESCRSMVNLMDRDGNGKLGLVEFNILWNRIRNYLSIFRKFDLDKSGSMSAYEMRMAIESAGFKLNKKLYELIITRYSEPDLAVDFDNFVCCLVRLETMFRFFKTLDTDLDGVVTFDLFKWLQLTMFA
T4 sequence (P04632 1-268 partner): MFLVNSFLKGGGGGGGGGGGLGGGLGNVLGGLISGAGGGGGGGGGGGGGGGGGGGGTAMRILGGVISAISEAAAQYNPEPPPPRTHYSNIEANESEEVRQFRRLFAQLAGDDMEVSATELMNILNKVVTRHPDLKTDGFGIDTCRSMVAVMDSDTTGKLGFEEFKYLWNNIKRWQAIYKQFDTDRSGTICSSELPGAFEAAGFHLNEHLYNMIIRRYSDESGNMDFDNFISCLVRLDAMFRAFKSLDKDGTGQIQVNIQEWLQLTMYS

[4] = cited from earlier work
[5] = test system: LF-PA63 treated RAW264.7 cells; assay type: cell-based, mouse
[6] = 33 μM drug, FRET, N/I = no FRET inhibition

T2 sequence (P09958 108-794): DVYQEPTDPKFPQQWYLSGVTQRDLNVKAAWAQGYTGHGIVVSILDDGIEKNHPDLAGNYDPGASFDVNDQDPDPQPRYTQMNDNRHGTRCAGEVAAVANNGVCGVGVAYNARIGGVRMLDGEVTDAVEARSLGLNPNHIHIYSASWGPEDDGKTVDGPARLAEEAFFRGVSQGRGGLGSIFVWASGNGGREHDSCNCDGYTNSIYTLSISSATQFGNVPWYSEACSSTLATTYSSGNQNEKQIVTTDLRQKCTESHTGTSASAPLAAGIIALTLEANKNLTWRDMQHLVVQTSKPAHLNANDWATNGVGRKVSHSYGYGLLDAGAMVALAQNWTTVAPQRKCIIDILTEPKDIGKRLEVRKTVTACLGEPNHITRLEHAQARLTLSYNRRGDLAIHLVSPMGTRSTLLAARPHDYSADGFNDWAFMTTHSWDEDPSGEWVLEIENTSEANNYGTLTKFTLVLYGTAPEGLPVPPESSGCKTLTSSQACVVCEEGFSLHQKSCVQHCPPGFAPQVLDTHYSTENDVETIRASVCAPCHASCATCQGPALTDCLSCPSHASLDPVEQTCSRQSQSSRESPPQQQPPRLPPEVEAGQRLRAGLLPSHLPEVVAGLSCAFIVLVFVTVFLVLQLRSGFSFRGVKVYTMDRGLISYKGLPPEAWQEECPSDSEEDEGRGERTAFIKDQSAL
anthrax LF, sequence (P15917 34-809 limits assumed): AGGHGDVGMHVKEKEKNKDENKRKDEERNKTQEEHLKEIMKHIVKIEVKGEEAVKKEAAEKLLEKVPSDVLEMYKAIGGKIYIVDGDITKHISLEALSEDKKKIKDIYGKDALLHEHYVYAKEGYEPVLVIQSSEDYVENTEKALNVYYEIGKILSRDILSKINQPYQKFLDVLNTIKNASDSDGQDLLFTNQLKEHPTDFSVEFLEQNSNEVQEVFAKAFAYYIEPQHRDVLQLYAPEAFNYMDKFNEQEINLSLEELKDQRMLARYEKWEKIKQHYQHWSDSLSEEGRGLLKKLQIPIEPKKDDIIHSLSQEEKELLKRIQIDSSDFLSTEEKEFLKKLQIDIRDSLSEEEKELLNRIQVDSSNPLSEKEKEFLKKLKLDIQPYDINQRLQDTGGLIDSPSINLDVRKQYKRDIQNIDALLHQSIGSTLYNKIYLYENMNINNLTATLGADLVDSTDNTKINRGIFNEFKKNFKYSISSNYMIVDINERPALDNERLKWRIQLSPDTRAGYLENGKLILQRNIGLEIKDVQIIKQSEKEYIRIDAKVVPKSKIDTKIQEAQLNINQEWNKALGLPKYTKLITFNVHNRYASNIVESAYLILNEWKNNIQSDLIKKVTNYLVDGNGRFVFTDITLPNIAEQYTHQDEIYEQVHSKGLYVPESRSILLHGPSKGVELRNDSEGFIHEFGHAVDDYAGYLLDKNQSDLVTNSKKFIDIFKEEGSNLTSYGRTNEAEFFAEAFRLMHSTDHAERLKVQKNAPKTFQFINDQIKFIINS

Compound | IC50 (anthrax LF) | inhibition at 33 µM (anthrax LF) | inhibition at 33 µM (human furin; [6]) | inhibition at 33 µM (caspase-1; [6]) | also measured
CCCCCCCCCCCCCCCC(=O)OC[C@H](O)[C@H]1OC(=O)C(O)=C1O [Ascorbic acid 6-palmitate] | 460 ± 260 nM | 99 ± 1.9% | 16 ± 0.67% | 18 ± 1.12% | Protection against LF-PA mediated cell killing [1]: complete protection; inhibition at 33 µM (caspase-3; [6]): 88 ± 2.9%; Protection against CT-mediated cell killing [2]: substantial protection; Protection against PE-mediated cell killing [3]: substantial protection; Percent Inhibition with 33 μM of drug, Cath B (cathepsin B): N/I; inhibition at 33 µM (calpain 1; [6]): 24 ± 19.4%; Critical Micelle Concentration (CMC) [4]: 0.8 mM
CCCCCCCCCCCCCCCC[N+](C)(C)Cc1ccccc1 [Cetalkonium chloride] | 160 ± 90 nM | 106 ± 1.21% | 8 ± 6.1% | 32 ± 1.17% | Percent Inhibition with 33 μM of drug, Casp 3 (caspase-3; [6]): N/I; Percent Inhibition with 33 μM of drug, Cath B (cathepsin B): N/I; inhibition at 33 µM (calpain 1; [6]): 68 ± 14.8%
CCCCCCCCCCCCOS(=O)(=O)O [Sodium lauryl sulfate] | 2900 ± 80 nM | 93 ± 0.57% |  |  | inhibition at 33 µM (caspase-3): 83 ± 2.7%; inhibition at 33 µM (human furin): 2 ± 4.56%; inhibition at 33 µM (caspase-1): 7 ± 3.06%; inhibition at 33 µM (calpain 1): 95 ± 6.02%; Critical Micelle Concentration (CMC) [4]: 8 mM
CCCCC(CC)COC(=O)CC(C(=O)OCC(CC)CCCC)S(=O)(=O)O (stereo not shown) [Docusate sodium] | 670 ± 50 nM | 95 ± 0.28% | 69 ± 0.13% | 35 ± 0.01% | Percent Inhibition with 33 μM of drug, Casp 3 (caspase-3; [6]): N/I; Percent Inhibition with 33 μM of drug, Cath B (cathepsin B): N/I; inhibition at 33 µM (calpain 1; [6]): 130 ± 0.19%
MPRRRRSSSRPVRRRRRPRVSRRRRRRGGRRRR [Salmon Sperm Protamine] |  | 107 ± 1.4% | 96 ± 1.2% |  | Protection against LF-PA mediated cell killing [1]: complete protection; inhibition at 33 µM (caspase-3; [6]): 87 ± 2.8%; Protection against CT-mediated cell killing [2]: substantial protection; Protection against PE-mediated cell killing [3]: substantial protection; inhibition at 33 µM (cathepsin B): 65 ± 0.5%; Protection against cell death induced by LF and PA63 [5]: reduces cellular sensitivity; also recorded: effectively protected all cells
PVRRRRRPRVSR [Salmon Sperm Protamine (11-22)] | 5000 ± 130 nM | 95 ± 0.1% | 84 ± 33% |  | 
RRRRRGGRRRR [Salmon Sperm Protamine (23-33)] | 15000 ± 10 nM | 93 ± 2.4% | 150 ± 5.3% |  | 
CSCC[C@H](NC(=O)[C@H](C)NC(=O)[C@@H](N)CCCNC(=N)N)C(=O)N[C@@H](CCCNC(=N)N)C(=O)N[C@@H](CS)C(=O)N[C@@H](CS)C(=O)N[C@@H](CCCNC(=N)N)C(=O)N1CCC[C@H]1C(=O)N[C@@H](CCCNC(=N)N)C(=O)N[C@@H](Cc1ccc(O)cc1)C(=O)N[C@@H](CCCNC(=N)N)C(=O)N1CCC[C@H]1C(=O)N[C@@H](CCCNC(=N)N)C(=O)N[C@@H](CS)C(=O)N[C@@H](CCCNC(=N)N)C(=O)N[C@@H](CCCNC(=N)N)C(=O)N[C@@H](Cc1c[nH]cn1)C(=O)O [Human Sperm Protamine (35-51)] (H-RAMRCCRPRYRPRCRRH-OH; N-terminus and C-terminus assumed) |  | 55 ± 0.9% |  |  | 
PVRRRRRPRVSRRRRRRGGRRRR [Salmon Sperm Protamine (11-33)] | 10000 ± 40 nM | 99 ± 0.2% | 86 ± 1.2% |  | 
CCCCCCCCCCCCc1ccccc1S(=O)(=O)O [Sodium dodecyl benzenesulfonate] |  | 104 ± 0.4% | 6 ± 3.34% | 14 ± 2.06% | IC50 (anthrax LF; read-out: LF IC50): 590 ± 80 nM; inhibition at 33 µM (caspase-3; [6]): 77 ± 2.5%; inhibition at 33 µM (cathepsin B): 96 ± 2.5%; inhibition at 33 µM (calpain 1; [6]): 26 ± 7.01%
MPRRRRSSSR [Salmon Sperm Protamine (1-10)] | 298000 ± 10 nM | 28 ± 1% |  |  | Percent Inhibition with 33 μM of drug, Furin (human furin; [6]): N/I
CCCCCCCCCCCC[N+](C)(C)CCOc1ccccc1 [Domiphen bromide] | 290 ± 30 nM | 103 ± 0.82% | 7 ± 6.64% | 17 ± 2.17% | Percent Inhibition with 33 μM of drug, Casp 3 (caspase-3; [6]): N/I; inhibition at 33 µM (cathepsin B): 23 ± 1.5%; Percent Inhibition with 33 μM of drug, Calpain (calpain 1; [6]): N/I
CSCC[C@H](N)C(=O)N[C@@H](C)C(=O)N[C@@H](CCCNC(=N)N)C(=O)N[C@@H](Cc1ccc(O)cc1)C(=O)N[C@@H](CCCNC(=N)N)C(=O)N[C@@H](CS)C(=O)N[C@@H](CS)C(=O)N[C@@H](CCCNC(=N)N)C(=O)N[C@@H](CO)C(=O)N[C@@H](CCC(N)=O)C(=O)N[C@@H](CO)C(=O)N[C@@H](CCCNC(=N)N)C(=O)N[C@@H](CO)C(=O)N[C@@H](CCCNC(=N)N)C(=O)N[C@@H](Cc1ccc(O)cc1)C(=O)N[C@@H](Cc1ccc(O)cc1)C(=O)N[C@@H](CCCNC(=N)N)C(=O)O [Human Sperm Protamine (1-17)] (H-MARYRCCRSQSRSRYYR-OH; N-terminus and C-terminus assumed) |  | 37 ± 0.7% |  |  | 
MARYRCCRSQSRSRYYRQRQRSRRRRRRSCQTRRRAMRCCRPRYRPRCRRH (cysteines drawn unpaired) [Human Sperm Protamine (1-51)] |  | 88 ± 1.2% | 97 ± 1.7% |  | 
CCOc1nc2cccc(C(=O)OC(C)OC(=O)OC3CCCCC3)c2n1Cc1ccc(-c2ccccc2-c2nnn[nH]2)cc1 (stereo not shown) [Candesartan cilexetil] | 400 ± 20 nM | 100 ± 0.07% | 88 ± 0.12% | 16 ± 0.1% | Percent Inhibition with 33 μM of drug, Casp 3 (caspase-3; [6]): N/I; inhibition at 33 µM (cathepsin B): 10 ± 3.1%; Percent Inhibition with 33 μM of drug, Calpain (calpain 1; [6]): N/I
QRQRSRRRRRRSCQTRR [Human Sperm Protamine (18-34)] | 24000 ± 150 nM | 72 ± 2.1% |  |  | 
MPRRRRSSSRPVRRRRRPRVSR [Salmon Sperm Protamine (1-22)] | 1000 ± 40 nM | 98 ± 0.6% | 91 ± 1.8% |  | 
